ChEMBL document CHEMBL1145631, “Development of a fluorescence polarization based assay for histone deacetylase ligand discovery” (Bioorg Med Chem Lett, 2008)

What was measured:
[1] = molecular target: T1, Protein deacetylase HDAC6 (Homo sapiens, UniProt Q9UBN7)
T1 sequence (Q9UBN7 whole entry): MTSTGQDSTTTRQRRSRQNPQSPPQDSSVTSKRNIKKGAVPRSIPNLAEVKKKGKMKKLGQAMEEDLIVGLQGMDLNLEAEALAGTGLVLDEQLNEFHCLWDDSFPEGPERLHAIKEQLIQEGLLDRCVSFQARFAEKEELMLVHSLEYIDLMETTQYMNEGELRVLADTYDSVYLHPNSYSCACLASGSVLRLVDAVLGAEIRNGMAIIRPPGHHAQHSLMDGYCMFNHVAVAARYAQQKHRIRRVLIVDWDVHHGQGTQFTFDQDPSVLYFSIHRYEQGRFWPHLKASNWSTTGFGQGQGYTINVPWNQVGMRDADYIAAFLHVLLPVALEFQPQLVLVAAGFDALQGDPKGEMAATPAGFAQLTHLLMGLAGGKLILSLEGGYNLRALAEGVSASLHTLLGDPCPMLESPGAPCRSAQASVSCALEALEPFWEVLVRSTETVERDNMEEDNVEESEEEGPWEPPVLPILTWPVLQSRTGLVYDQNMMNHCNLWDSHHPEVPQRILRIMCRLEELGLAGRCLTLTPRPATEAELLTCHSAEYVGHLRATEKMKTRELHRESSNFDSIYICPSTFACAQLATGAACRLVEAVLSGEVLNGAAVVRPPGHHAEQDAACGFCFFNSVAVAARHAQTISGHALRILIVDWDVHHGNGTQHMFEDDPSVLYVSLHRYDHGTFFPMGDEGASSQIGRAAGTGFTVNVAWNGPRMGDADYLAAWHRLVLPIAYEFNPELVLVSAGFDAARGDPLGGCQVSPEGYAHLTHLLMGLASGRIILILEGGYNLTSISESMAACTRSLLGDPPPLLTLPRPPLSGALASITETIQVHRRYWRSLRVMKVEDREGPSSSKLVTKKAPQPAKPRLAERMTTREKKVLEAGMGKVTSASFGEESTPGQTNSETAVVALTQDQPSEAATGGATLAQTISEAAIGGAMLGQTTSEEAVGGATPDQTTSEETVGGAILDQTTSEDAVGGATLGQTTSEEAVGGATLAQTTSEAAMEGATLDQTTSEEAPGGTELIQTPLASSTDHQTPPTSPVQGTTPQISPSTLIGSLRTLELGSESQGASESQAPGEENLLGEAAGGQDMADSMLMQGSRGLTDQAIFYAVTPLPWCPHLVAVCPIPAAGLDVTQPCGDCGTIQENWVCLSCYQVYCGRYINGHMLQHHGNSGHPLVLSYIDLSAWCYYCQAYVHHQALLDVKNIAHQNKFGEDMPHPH
Description: Displacement of fluorescent 5-(3-(3-(4-((4-((7-(hydroxyamino)-7-oxoheptyl)carbamoyl)phenylamino)methyl)-1H-1,2,3-triazol-1-yl)propyl)thioureido)-2-(3-hydroxy-6-oxo-6H-xanthen-9-yl)benzoic acid from human HDAC6 by fluorescence polarization assay

[2] = molecular target: Histone deacetylase 3/Nuclear receptor corepressor 2 (HDAC3/NCoR2) (Homo sapiens, UniProt O15379); type: protein-complex assay
Description: Displacement of fluorescent 5-(3-(3-(4-((4-((7-(hydroxyamino)-7-oxoheptyl)carbamoyl)phenylamino)methyl)-1H-1,2,3-triazol-1-yl)propyl)thioureido)-2-(3-hydroxy-6-oxo-6H-xanthen-9-yl)benzoic acid from human HDAC3/NcoR2 by fluorescence polarization assay

Histone deacetylase = type: protein assay, Homo sapiens
Description: Displacement of fluorescent 5-(3-(3-(4-((4-((7-(hydroxyamino)-7-oxoheptyl)carbamoyl)phenylamino)methyl)-1H-1,2,3-triazol-1-yl)propyl)thioureido)-2-(3-hydroxy-6-oxo-6H-xanthen-9-yl)benzoic acid from HDAC in human HeLa nuclear cell extract by fluorescence polarization assay

Histone deacetylase 3/Nuclear receptor corepressor 2 (HDAC3/NCoR2), sequence (O15379 whole entry): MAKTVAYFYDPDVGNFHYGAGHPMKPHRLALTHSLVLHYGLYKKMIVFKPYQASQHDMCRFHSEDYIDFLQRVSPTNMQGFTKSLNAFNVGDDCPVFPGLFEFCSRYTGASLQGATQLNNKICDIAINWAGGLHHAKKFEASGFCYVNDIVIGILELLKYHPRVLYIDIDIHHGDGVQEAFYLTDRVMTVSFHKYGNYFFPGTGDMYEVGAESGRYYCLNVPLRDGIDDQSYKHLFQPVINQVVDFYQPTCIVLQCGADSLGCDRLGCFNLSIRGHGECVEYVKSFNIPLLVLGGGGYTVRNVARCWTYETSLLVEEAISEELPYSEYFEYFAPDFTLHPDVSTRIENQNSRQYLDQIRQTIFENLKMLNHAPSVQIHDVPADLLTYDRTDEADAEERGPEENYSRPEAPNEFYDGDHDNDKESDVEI
Histone deacetylase 3/Nuclear receptor corepressor 2 (HDAC3/NCoR2), sequence (Q9Y618 whole entry, further chain): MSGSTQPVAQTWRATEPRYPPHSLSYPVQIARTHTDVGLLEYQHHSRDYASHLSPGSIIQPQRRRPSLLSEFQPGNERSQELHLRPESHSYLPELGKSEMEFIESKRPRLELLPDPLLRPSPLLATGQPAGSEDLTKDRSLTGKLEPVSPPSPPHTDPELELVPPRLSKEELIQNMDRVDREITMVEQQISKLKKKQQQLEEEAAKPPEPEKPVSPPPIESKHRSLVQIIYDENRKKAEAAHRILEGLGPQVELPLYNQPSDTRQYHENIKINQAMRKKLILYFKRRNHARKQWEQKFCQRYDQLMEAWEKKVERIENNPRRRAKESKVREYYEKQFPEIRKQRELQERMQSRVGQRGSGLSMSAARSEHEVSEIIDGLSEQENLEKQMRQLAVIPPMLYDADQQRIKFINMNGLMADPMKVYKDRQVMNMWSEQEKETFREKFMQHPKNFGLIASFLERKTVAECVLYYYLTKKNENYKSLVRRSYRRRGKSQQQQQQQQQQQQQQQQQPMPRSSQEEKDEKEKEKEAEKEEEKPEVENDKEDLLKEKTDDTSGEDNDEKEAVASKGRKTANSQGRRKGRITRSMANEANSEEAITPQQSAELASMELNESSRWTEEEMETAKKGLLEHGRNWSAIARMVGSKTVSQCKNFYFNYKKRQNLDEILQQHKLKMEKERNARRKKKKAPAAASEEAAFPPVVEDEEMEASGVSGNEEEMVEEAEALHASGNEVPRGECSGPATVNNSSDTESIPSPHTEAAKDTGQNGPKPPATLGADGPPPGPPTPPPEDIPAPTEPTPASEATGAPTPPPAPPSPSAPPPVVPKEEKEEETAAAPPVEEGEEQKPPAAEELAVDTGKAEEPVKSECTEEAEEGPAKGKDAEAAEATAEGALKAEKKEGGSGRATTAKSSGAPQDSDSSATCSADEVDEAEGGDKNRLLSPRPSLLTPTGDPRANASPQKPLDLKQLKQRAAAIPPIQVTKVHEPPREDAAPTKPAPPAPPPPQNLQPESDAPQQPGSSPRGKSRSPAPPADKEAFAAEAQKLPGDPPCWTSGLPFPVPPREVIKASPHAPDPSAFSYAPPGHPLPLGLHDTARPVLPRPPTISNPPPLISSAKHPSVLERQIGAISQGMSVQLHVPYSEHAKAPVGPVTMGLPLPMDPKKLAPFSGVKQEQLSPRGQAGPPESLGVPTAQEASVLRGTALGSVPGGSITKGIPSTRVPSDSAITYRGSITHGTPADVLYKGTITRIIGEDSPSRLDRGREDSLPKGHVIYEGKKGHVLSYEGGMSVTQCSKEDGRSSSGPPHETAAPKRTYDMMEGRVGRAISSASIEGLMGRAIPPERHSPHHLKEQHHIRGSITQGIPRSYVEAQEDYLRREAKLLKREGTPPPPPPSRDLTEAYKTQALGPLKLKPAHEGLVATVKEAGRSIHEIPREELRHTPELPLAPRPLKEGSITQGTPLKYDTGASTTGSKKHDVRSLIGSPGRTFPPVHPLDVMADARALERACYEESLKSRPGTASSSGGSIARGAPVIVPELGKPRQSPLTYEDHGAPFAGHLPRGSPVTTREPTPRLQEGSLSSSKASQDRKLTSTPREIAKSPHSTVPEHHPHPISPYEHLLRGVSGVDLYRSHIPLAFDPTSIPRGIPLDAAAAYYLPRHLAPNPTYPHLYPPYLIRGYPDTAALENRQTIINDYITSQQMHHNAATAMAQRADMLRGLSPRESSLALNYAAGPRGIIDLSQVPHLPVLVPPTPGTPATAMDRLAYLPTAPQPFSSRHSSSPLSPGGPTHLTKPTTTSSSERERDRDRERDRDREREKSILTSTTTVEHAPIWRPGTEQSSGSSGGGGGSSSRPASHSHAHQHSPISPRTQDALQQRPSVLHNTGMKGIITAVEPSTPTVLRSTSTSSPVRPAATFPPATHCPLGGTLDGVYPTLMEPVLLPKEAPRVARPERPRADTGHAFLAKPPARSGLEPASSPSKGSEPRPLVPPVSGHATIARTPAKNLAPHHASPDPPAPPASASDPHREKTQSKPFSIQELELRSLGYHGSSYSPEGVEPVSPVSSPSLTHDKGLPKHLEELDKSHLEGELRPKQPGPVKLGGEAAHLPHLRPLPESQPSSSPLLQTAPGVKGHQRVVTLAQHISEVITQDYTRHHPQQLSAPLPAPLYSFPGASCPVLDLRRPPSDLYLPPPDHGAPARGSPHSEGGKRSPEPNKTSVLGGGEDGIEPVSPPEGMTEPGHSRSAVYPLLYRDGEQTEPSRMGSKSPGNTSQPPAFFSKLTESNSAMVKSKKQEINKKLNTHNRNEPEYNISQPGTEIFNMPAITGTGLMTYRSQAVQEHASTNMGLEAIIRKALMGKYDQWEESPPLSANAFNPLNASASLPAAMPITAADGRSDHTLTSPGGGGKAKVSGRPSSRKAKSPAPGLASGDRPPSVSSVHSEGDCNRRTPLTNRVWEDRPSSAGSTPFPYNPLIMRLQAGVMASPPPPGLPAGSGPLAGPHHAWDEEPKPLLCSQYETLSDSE

Row | SMILES | IC50 [1] [nM] | Ki [1] [nM] | IC50 [2] [nM] | Ki [2] [nM] | IC50 (Histone deacetylase) [nM] | Kd [1] [nM] | Kd [2] [nM]
1 | O=C1CCc2c(ccc3ccccc23)O1 [SPLITOMICIN] | > 75000 | > 75000 | > 75000 | > 75000 | > 75000 | – | –
2 | O=C(CCCCCCNC(=O)c1ccc(NCc2cn(CCCNC(=S)Nc3ccc(-c4c5ccc(=O)cc-5oc5ccccc45)c(C(=O)O)c3)nn2)cc1)NO | – | – | – | – | – | 4.6 | 2
3 | NCCCn1cc(CNc2ccc(C(=O)NCCCCCCC(=O)NO)cc2)nn1 | 50.8 | 6.6 | 137 | 23.1 | 58 | – | –
